1 molecule from patent US20070202079A1, “Therapeutic compositions and methods useful in modulating protein tyrosine phosphatases” (priority 2006, published 2007) can be followed below.

One data set concerns WM35. As to the kind of experiment: WM35 cell growth, MTT. In kind it is cell-based, human. How it is done: For cell proliferation assays, cells were grown in 10% FCS culture medium containing various amounts of IFNs and/or sodium stibogluconate in 96 well plates and cultured at 37° C. for 3 or 6 days as indicated. The numbers of viable cells in proliferation assays were determined by MTT assays as described in Phatak et al., J. Immunol. 167, 3391 (2001).

Data set [1] relates to tumor-infiltrating and spleen immune cells (F4/80+, CD4+, CD8+). As to the kind of experiment: immunohistochemistry of Renca tumors and spleen. In kind it is in vivo, Balb/c mice. To be noted: mouse, in vivo. How it is done: Major internal organs and Renca tumors harvested from mice were fixed in 10% formalin or snap frozen in liquid nitrogen. H & E-stained tissue sections of the fixed samples were prepared and evaluated by microscopy as described previously (Yi, T., M. K. Pathak, D. J. Lindner, M. E. Ketterer, C. Farver, and E. C. Borden. 2002. Anticancer activity of sodium stibogluconate in synergy with IFNs. J Immunol 169:5978). Preparation of frozen tissue sections and immunohistochemistry were performed following established procedures (Joliat, M. J., P. A. Lang, B. L. Lyons, L. Burzenski, M. A. Lynes, T. Yi, J. P. Sundberg, and L. D. Shultz. 2002. Absence of CD5 dramatically reduces progression of pulmonary inflammatory lesions in SHP-1 protein-tyrosine phosphatase-deficient ‘viable motheaten’ mice. J Autoimmun 18:105). The antibodies used for immunohistochemistry were anti-CD4 (rat mAb, clone GK1.5, BD Biosciences, Franklin Lakes, N.J.), anti-CD8 (rat mAb, clone 53-6.7.5, BD Biosciences, Franklin Lakes, N.J.), anti-F4/80 (rat mAb, clone A3-1, Serotec, Oxford, UK) and anti-Asialo GM1 (rabbit polyclonal, Cedarlane, Hornby, Canada). […] Tissue sections of 2 mice/group were evaluated. The number of immune cells was semi-quantified based on the following scheme: […], 0-1 positive cells/40×field; +, 2-5 positive cells/40×field; ++, 6-10 positive cells/40×field, etc.

For the next data set, the system named is Renca tumors. Nature of the data set: Renca tumors in Balb/c mice. It counts as in vivo. To be noted: Balb/c mice, two weeks. How it is done:
Balb/c and athymic nude Balb/c mice (10 weeks old, female, Taconic Farms, Germantown, N.Y.) were inoculated (s.c.) at the flanks with Renca cells (10^6 cells/site). Four days post-inoculation, the mice were subject to no treatment (Control) or treatment with IL-2 ([…]/daily for 5 days, i.p.), SSG (12 mg/daily, i.m. at hip regions) or the combination of the two agents for two weeks. […] The dose of SSG was similar to the effective daily dose of the drug for the treatment of murine leishmaniasis (Murray, H. W., J. D. Berman, and S. D. Wright. 1988. Immunochemotherapy for intracellular Leishmania donovani infection: gamma interferon plus pentavalent antimony. J Infect Dis 157:973). Tumor volume was measured during the study period and calculated using the formula for a prolate spheroid (V=4/3×a2b) (Lindner, D. J., E. C. Borden, and D. V. Kalvakolanu. 1997. Synergistic antitumor effects of a combination of interferons and retinoic acid on human tumor cells in vitro and in vivo. Clin Cancer Res 3:931). Student's t test was used for assessing the significance of tumor volume differences among differential treatment groups. Mouse viability (daily) and body weights (weekly) were also recorded during the study period. At the end of the study, Renca tumors and major internal organs (heart, kidney, liver, lung and spleen) were harvested for histology and immunohistochemistry analysis.

The test system of the next data set is NB4 cells. As to the kind of experiment: NB4 growth, cell cycle and Annexin V. In kind it is cell-based, human. How it is done: The NB4 cell line (Lanotte et al., Blood 77, 1080 (1991)) was a gift from Dr. Dan Lindner of the Cleveland Clinic Foundation. […] and U937 cell lines were purchased from American Type Culture Collection (Rockville, Md.). These human […] cell lines were maintained in RPMI 1640 medium supplemented with 10% fetal calf serum (FCS). For cell proliferation assays, cells were cultured at 37° C. in 10% FCS medium containing various amounts of sodium stibogluconate for 6 days. The cell numbers in the cultures were determined by an MTT assay as described previously in Mosmann, J. Immunol. Methods 65, 55 (1983).
The cell cycle was analyzed by flow cytometry after 3 days of culture of NB4 cells in the absence or presence of sodium stibogluconate (250 μg/ml) or ATRA (1 μM). Briefly, the cells were fixed in cold ethanol and incubated for 30 minutes at 4° C. in the dark with a solution of […] propidium iodide, 1 mg/ml RNase and 0.1% NP-40. Analysis was performed immediately after staining using the CELLFIT program (Becton Dickinson, Mountain View, Calif.).
Annexin V staining of exposed membrane phospholipid phosphatidylserine (PS) was done using the Annexin V assay kit (Pharmingen, San Diego, Calif.). Briefly, NB4 cells were cultured in the 10% FCS RPMI 1640 medium in the absence or presence of sodium stibogluconate (250 μg/ml) or ATRA (1 μM) for 3 days. Cells were then washed in PBS twice and stained in binding buffer (10 mM Hepes, pH 7.4; 140 mM NaCl; 2.5 mM CaCl2) containing Annexin V-FITC and propidium iodide for 15 min. The reaction was stopped by adding 10 volumes of binding buffer and analyzed by FACS (Becton Dickinson Facsvantage).

Consider `O.O.O.O.O.O.O.O.O.O=C([O-])[C@@H]1[O][Sb]2([O-])([O][Sb]34([OH])[O][C@H]([C@H](O)CO)[C@H]([O]3)[C@H](C(=O)[O-])[O]4)[O][C@H]([C@H](O)CO)[C@@H]1[O]2.[Na+].[Na+].[Na+]` [sodium stibogluconate], for which the “sensitivity of WM35 cells” value with WM35 is “minimally affected”. Besides, the “numbers of tumor-infiltrating T cells or NK cells” value in data set [1] is recorded as “little effect”. Besides, in the data set on Renca tumors, the tolerance of treatment result is on record as “tolerated well”. Moreover, the “Annexin V staining of NB4 cells” value in the data set on NB4 cells (250 μg/ml, 6 days) is recorded as “stained positive by Annexin V”. In the data set with NB4 cells (12.5-400 μg/ml), the “proliferation of NB4 cells” value is listed as “markedly inhibited”. In addition, in the data set on NB4 cells (sodium stibogluconate 250 μg/ml or ATRA 1 μM, 3 days), the “cell cycle of NB4 cells” value was “significant increase of cells at S phase”.
